In publication PMC10237672, “Design and synthesis of novel anti-urease imidazothiazole derivatives with promising antibacterial activity against Helicobacter pylori” (PLOS ONE, 2023):
≈ marks a conversion by molar mass, not a printed value. Entries after “also recorded” stand apart in the source; their conditions may differ. Where two headings read alike, the source gives them in different places.

What was measured:
[1] = system: H. pylori; assay: MIC against H. pylori, agar dilution method; type: cell-based, Helicobacter pylori; conditions: for MIC: Helicobacter pylori, ATCC43504, read-out: MIC value against H. pylori ± SEM; for antibacterial activity against H. pylori (in words): compared within the series and with acetohydroxamic acid
[2] = system: H. pylori; assay: IC50 against H. pylori, micro broth dilution test; type: cell-based, Helicobacter pylori; conditions: H. pylori ATCC 43504, micro broth dilution, 72 h, OD 600 nm, read-out: IC50 value against H. pylori ± SEM
[3] = system: AGS gastric cells; assay: Cytotoxicity MTT assay against AGS gastric cells; type: cell-based, Human; conditions: for IC50: MTT, 48 h treatment, read-out: IC50 value against AGS cells ± SEM; for Selectivity index (SI): toward H. pylori vis-à-vis AGS cells (IC50 values)
Method: Human gastric adenocarcinoma AGS cells (ATCC CRL-1739) were purchased from the German Cell Lines Service (CLS, Germany) and cultured in RPMI-1640 medium (Sigma, USA) supplemented with 10% fetal bovine serum (FBS, Sigma, USA) and streptomycin-penicillin (100 μg/mL and 100 IU/mL) (Sigma, USA). Cells were incubated at 37 °C in a humidified atmosphere with 5% CO2 until 80–90% confluency.
The (4, 5-dimethythiazol-2-yl) -2, 5-diphenyltetrazolium bromide (MTT, Sigma, USA) assay was used to assess the cytotoxicity of the five most significant compounds. AGS cells (5×10^3/well) were seeded in 96-well plates for 24 h and treated with various concentrations (0.8 mM, 0.4 mM, 0.2 mM, 0.1 mM, 0.05 mM, 0.025 mM, 0.0125 mM, and 0.006 mM) of the five most significant anti-urease imidazothiazole derivatives compounds (compound 1a, 1d, 1h, 2d, and 2f). After 48 h treatment, 100 μL of MTT solution (50 μg/mL) was added to each well, and the cells were incubated for additional 2 h at 37 °C. The solubilization of MTT crystals was accomplished by adding 100 μL of DMSO followed by 10 min of incubation. The plates were shaken for 5 min to dissolve the MTT formazan crystals. The optical density of each well was determined using a Synergy H1 microplate reader (Biotek, USA) at a wavelength of 570 nm. The IC50 of the tested compounds was calculated using GraphPad Prism 8.0.2 for windows (GraphPad Inc., La Jolla, CA, USA) from two repeated experiments.

[4] = system: E. coli; assay: MIC against E. coli (urease negative), agar dilution method; type: cell-based, Escherichia coli; conditions: for MIC: Escherichia coli, ATCC25922, read-out: MIC ± SEM against E. coli (Urease-)
Method: (§1) The H. pylori reference strain ATCC 43504 (DSM 21031) was purchased from the German collection of microorganisms and cell cultures, GmbH (DSMZ; Germany). H. pylori was grown on Brucella agar plates (Sigma, USA) supplemented with 10% horse serum (Sigma, USA) for 72 h at 37 °C under 98% humidity and microaerophilic conditions (5% O2, 10% CO2, and 85% N2) using microaerophilic CampyGen 2.5 L pack (Oxoid, thermo scientific, UK) and anaerobic jar (Biomerieux, France). H. pylori culture was inspected after 3 to 5 days. The E. coli reference strain ATCC 25922 was purchased from the American Type Culture Collection (ATCC, Manassas, VA, USA). E. coli was grown on nutrient agar plates (Sigma, USA) for 24 h at 37 °C under aerobic conditions. Bacterial load was adjusted using a DensiCHEK PLUS device (Biomerieux, France). A regular gram stain (Biomerieux, France) was performed to confirm the identity and the morphology of H. pylori and E. coli as well as to confirm the absence of any contamination. Furthermore, a regular spotting checkup was also performed behind the micro broth dilution testing followed by a gram stain to confirm the identity of the bacteria and the absence of any potential contamination.
(§2) For MIC, the agar dilution method was performed as per the CLSI guidelines. 5 μL of the H. pylori suspension (2.0 McFarland) was plated on the Mueller–Hinton agar (Sigma, USA) supplemented with 10% horse serum including various concentrations of compounds 1a-1j and 2a-2j (0.8 mM, 0.4 mM, 0.2 mM, 0.1 mM, 0.05 mM, 0.025 mM, 0.0125 mM, and 0.006 mM). […] For the micro broth dilution test, compounds 1a-1j and 2a-2j were prepared by 2-fold serial dilution from a concentration of 0.8 mM to 0.006 mM and added to an equal H. pylori suspension of 1.0 McFarland in Mueller–Hinton broth (Sigma, USA) for 72 h. Final optical density of the bacterial suspension was measured by spectrophotometry using Synergy H1 microplate reader (BioTek, USA) at 600 nm. The half maximal inhibitory concentration (IC50) was calculated using Graph Pad Prism 8.02 for windows (Graph Pad Inc., La Jolla, CA, USA). All the tested derivatives compounds were dissolved in dimethyl sulfoxide (DMSO, Sigma, USA). […] Amoxicillin (Sigma, USA) (10 μg/mL and 0.007 μg/mL) and (12 μg/mL and 3 μg/mL) was used as a control antibiotic to confirm the agar dilution protocol for H. pylori and E. coli, respectively. Acetohydroxamic acid (AHA, Sigma, CAS number: 546-88-3) was used as a positive anti-urease control. All antimicrobial susceptibility experiments were repeated twice.

[5] = system: E. coli; assay: IC50 against E. coli (urease negative), micro broth dilution method; type: cell-based, Escherichia coli; conditions: E. coli ATCC 25922, micro broth dilution
Method: as §1, §2

[6] = molecular target: T1, Jack bean urease (Canavalia ensiformis, UniProt P07374); assay: biochemical; type: biochemical
T1 construct: purchased Sigma Aldrich
Method: Reaction mixture comprising 40 μL of buffer (K2HPO4: 10 mmol/L, urea: 100 mmol/L, […]: 10 mmol/L, EDTA: 1 /L mmol, pH = 8.2) and 5 U/mL enzyme (10 μL) were pre-incubated with 10 μL of synthesized compounds (1 mM) and substrate urea (1 mM) were incubated at room temperature in 96 well plate for half an hour. After the incubation at room temperature, absorbance was taken at specific wavelength (630 nm) employing a microplate reader (Bio-Tek, USA) with R1 and R2 reagents in each well. The reactions were measured in triplicate fashion. To calculate the inhibition percentage following equation was used.
Percentage inhibition = 100 –[tested compound/control compound] × 100.

[7] = Caco-2 A-B permeability; type: in vitro ADME; conditions: human, pH 6.5–7.4, test concentration = MIC against H. pylori (19-50 μM), reference drugs 10 μM
Method: (§3) The apparent permeability coefficient (Papp) of the test compound was calculated as follows: Papp(cm/s)=VR*CR,end/Δt*1/A*(CD,mid‐CR,mid) where VR is the volume of the receiver chamber. CR,end is the concentration of the test compound in the receiver chamber at the end time point, Δt is the incubation time and A is the surface area of the cell monolayer. CD,mid is the calculated mid-point concentration of the test compound in the donor side, which is the mean value of the donor concentration at time 0 minute and the donor concentration at the end time point. CR,mid is the mid-point concentration of the test compound in the receiver side, which is one half of the receiver concentration at the end time point. Concentrations of the test compound were expressed as peak areas of the test compound.
(§4) The recovery of the test compound was calculated as follows: Recovery(%)=VD*CD,end+VR*CR,end/VD*CD0*100 where VD and VR are the volumes of the donor and receiver chambers, respectively. CD,end is the concentration of the test compound in the donor sample at the end time point. CR,end is the concentration of the test compound in the receiver sample at the end time point. CD0 is the concentration of the test compound in the donor sample at time zero. Concentrations of the test compound are expressed as peak areas of the test compound.
(§5) Fluorescein was used as the cell monolayer integrity marker. Fluorescein permeability assessment (in the A-B direction at pH 7.4 on both sides) was executed after the permeability assay for the test compound.

[8] = system: Caco-2 cells; assay: Caco-2 A-B permeability; type: in vitro ADME
Method: as §3, §4, §5

[9] = H. pylori ATCC 43504, agar dilution
[10] = E. coli ATCC 25922, agar dilution

T1 sequence (P07374 whole entry, looked up): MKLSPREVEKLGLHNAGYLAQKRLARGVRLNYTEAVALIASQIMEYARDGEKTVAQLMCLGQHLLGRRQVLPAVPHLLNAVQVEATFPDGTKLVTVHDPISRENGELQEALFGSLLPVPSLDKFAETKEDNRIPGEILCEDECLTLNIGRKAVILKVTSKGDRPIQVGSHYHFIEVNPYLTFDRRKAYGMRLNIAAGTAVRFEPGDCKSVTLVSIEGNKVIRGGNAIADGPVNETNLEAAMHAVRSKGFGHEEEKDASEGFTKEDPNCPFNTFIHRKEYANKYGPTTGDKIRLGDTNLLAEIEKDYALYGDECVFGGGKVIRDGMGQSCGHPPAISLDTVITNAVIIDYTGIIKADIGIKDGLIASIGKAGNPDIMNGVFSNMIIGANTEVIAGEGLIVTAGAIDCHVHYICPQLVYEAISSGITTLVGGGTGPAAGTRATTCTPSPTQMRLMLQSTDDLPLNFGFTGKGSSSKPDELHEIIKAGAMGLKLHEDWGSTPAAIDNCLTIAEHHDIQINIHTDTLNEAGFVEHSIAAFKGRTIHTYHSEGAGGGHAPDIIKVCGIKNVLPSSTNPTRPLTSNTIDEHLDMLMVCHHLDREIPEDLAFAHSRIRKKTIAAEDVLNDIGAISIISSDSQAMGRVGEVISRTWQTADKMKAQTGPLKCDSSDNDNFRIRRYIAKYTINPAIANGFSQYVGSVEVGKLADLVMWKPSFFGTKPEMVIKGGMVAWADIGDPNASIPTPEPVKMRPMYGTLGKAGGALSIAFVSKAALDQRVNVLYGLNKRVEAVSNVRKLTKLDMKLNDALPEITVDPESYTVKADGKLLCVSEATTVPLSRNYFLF

CC(=O)NO [Acetohydroxamic acid (AHA), Acetohydroxamic acid, reference compound]
MIC value against H. pylori ± SEM [1, 9]: 12500 ± 0 µM (≈ 938 µg/mL) | IC50 [2]: 7380 ± 320 µM | IC50 [3]: 5900 ± 300 µM | MIC ± SEM against E. coli (Urease-) [4, 10]: 100000 µM | IC50 ([5]; read-out: IC50 ± SEM against E. coli (Urease-)): 39900 ± 1780 µM

CS(=O)(=O)Oc1cccc(-c2nc3sccn3c2-c2ccccc2)c1 [Compound 1a, 3-(5-Phenylimidazo[2,1-b]thiazol-6-yl)phenyl methanesulfonate]
IC50 [6]: 4.1 ± 0.03 µM | MIC [1, 9]: 19 ± 4 µM | antibacterial activity against H. pylori (in words) [1]: strongest antibacterial activity | IC50 ([2]; Helicobacter pylori, ATCC43504): 23 ± 9 µM | IC50 ([3]; Homo sapiens, AGS): 71 ± 17 µM | Selectivity index (SI) [3]: 3.09 | MIC [4, 10]: > 800 µM | IC50 ± SEM against E. coli (Urease-) [5]: No effect | Papp [7]: 18.6 ± 0.79 ×10⁻⁶ cm/s | recovery [7]: 34.4% | melting point: 105 to 108 °C

O=S(=O)(Oc1cccc(-c2nc3sccn3c2-c2ccccc2)c1)C1CCCCC1 [Compound 1d, 3-(5-Phenylimidazo[2,1-b]thiazol-6-yl)phenyl cyclohexane-1-sulfonate]
IC50 [6]: 3.09 ± 0.07 µM | MIC [1, 9]: 31 ± 11 µM (≈ 13.6 µg/mL) | antibacterial activity against H. pylori (in words) [1]: strongest antibacterial activity | IC50 ([2]; Helicobacter pylori, ATCC43504): 20 ± 3 µM | IC50 ([3]; Homo sapiens, AGS): 121 ± 44 µM | Selectivity index (SI) [3]: 6.05 | activity against urease-negative E. coli (in words) ([4]; E. coli, up to 0.8 mM): did not show activity | MIC [4, 10]: > 800 µM | IC50 ± SEM against E. coli (Urease-) [5]: No effect | Papp [7]: 0.04 ± 0.01 ×10⁻⁶ cm/s | recovery [7]: 63% | Caco-2 permeability (in words) [8]: lowest permeability; also recorded: poor Caco-2 A-B permeability; also recorded: low permeability | melting point: 118 to 120 °C

NS(=O)(=O)Oc1cccc(-c2nc3sccn3c2-c2ccccc2)c1 [Compound 1h, 3-(5-Phenylimidazo[2,1-b]thiazol-6-yl)phenyl sulfamate]
IC50 [6]: 2.96 ± 0.02 µM | MIC [1, 9]: 50 µM (≈ 18.6 µg/mL) | antibacterial activity against H. pylori (in words) [1]: strongest antibacterial activity | IC50 ([2]; Helicobacter pylori, ATCC43504): 28 ± 1 µM | IC50 ([3]; Homo sapiens, AGS): 145 ± 45 µM | Selectivity index (SI) [3]: 5.18 | MIC [4, 10]: > 800 µM | IC50 ± SEM against E. coli (Urease-) [5]: No effect | Papp [7]: 16.9 ± 0.87 ×10⁻⁶ cm/s | recovery [7]: 32.6% | melting point: 173 to 175 °C

CS(=O)(=O)c1cccc(-c2c(-c3cccc(OS(=O)(=O)C4CCCCC4)c3)nc3sccn23)c1 [Compound 2d, 3-(5-(3-(Methylsulfonyl)phenyl)imidazo[2,1-b]thiazol-6-yl)phenyl cyclohexane-1-sulfonate]
IC50 [6]: 4.46 ± 0.12 µM | MIC [1, 9]: 22 ± 4 µM (≈ 11.4 µg/mL) | antibacterial activity against H. pylori (in words) [1]: strongest antibacterial activity | IC50 ([2]; Helicobacter pylori, ATCC43504): 15 ± 3 µM | IC50 ([3]; Homo sapiens, AGS): 30 ± 11 µM | Selectivity index (SI) [3]: 2.0 | MIC [4, 10]: > 800 µM | IC50 ± SEM against E. coli (Urease-) [5]: No effect | Papp [7]: 0.07 ± 0.02 ×10⁻⁶ cm/s | recovery [7]: 73.5% | Caco-2 permeability (in words) [8]: lowest permeability; also recorded: low permeability | melting point: 142 to 144 °C

CS(=O)(=O)c1cccc(-c2c(-c3cccc(OS(=O)(=O)c4ccc(F)cc4)c3)nc3sccn23)c1 [Compound 2f, 3-(5-(3-(Methylsulfonyl)phenyl)imidazo[2,1-b]thiazol-6-yl)phenyl 4-fluorobenzenesulfonate]
IC50 [6]: 7.19 ± 0.09 µM | MIC [1, 9]: 38 ± 13 µM (≈ 20.1 µg/mL) | antibacterial activity against H. pylori (in words) [1]: strongest antibacterial activity | IC50 ([2]; Helicobacter pylori, ATCC43504): 23 ± 8 µM | IC50 ([3]; Homo sapiens, AGS): 45 ± 5 µM | Selectivity index (SI) [3]: 1.95 | MIC [4, 10]: > 800 µM | IC50 ± SEM against E. coli (Urease-) [5]: No effect | Papp [7]: 1.98 ± 0.23 ×10⁻⁶ cm/s | recovery [7]: 71.8% | Caco-2 permeability (in words) [8]: lowest permeability; also recorded: low permeability
